Reference: patent publication US9702875B2 (priority 2006, dated 2017)
Where a SMILES comes first, the peptide text is derived from it. The star is where a group is joined. Cbz = O=C(OCc1ccccc1)*

Tests used:
ERCC1 protein isoforms = assay: Western blot of ERCC1 protein isoforms after proteasome inhibition; type: cell-based, human; settings: 2 μM for 24 h
Method: Proteins were extracted by lysis in RIPA buffer (50 mM Tris, 150 mM NaCl, 5 mM EDTA, 0.5% sodium deoxycholic acid, 0.5% NP-40, 0.1% SDS) supplemented with a protease inhibitor cocktail (Complete; Roche Molecular). For nucleus and cytoplasm protein, a first extraction and separation was done with a buffer containing 10 mM HEPES, 10 mM KCl, 1 mM DTT, 1 mM PMSF and protease inhibitor cocktail supplemented with 0.3% NP40. The nucleus fraction was next resuspended in a buffer containing 20 mM HEPES and 400 mM NaCl. Protein were then separated by SDS-PAGE and transferred to nitrocellulose membranes by the iBlot® 7-Minute Blotting System (Invitrogen). Blots were incubated with primary and secondary peroxidase-conjugated antibodies and chemiluminescent detection was done using the Dura HRP Substrate (Thermo scientific).
For proteasome inhibition, cells were treated with MG132 (Merck) at 2 μM for 24 h.

[1] = system: cell lines without ERCC1-202 isoform expression (A549 ERCC1-deficient); assay: Cell cycle / DNA content by flow cytometry after cisplatin; type: cell-based, human; settings: 30 and 300 nM for 48 hours
Method: To study effect of cisplatin on cell cycle arrest, cells were treated with 30 nM or 300 nM of cisplatin for 48 h. For high DNA content analysis, cells were blocked in G2/M cell cycle phase with Karyomax colcemid solution (Gibco-Invitrogen) at 0.1 μg/ml for 6 h.
DNA content was determined in ethanol-fixed cells, stained with propidium iodide and analyzed using a Becton Dickinson FACScalibur flow cytometer and the CellQuest Pro software.

Compound: CC(C)C[C@@H](C=O)NC(=O)[C@H](CC(C)C)NC(=O)[C@H](CC(C)C)NC(=O)OCc1ccccc1 [MG132] (Cbz-Leu-Leu-Leu-aldehyde)
- ERCC1 isoform protein expression level after proteasome inhibition (ERCC1 protein isoforms): increase in ERCC1-201, -203 and -204 expression level

Compound: N.N.[Cl][Pt][Cl] [cisplatin]
- cells blocked in G2/M cell cycle phase [1]: 60-80%
